In ChEMBL document CHEMBL1201862, “PubChem BioAssay data set” (2004):
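48-hour exposure; five concentrations; linearly interpolated endpoints. Abbreviation: GI50, concentration required for 50% inhibition of growth.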 The source made the active and inactive calls. No stated cut-off is given here; in the data, active = GI50 up to about 1.1 µM and inactive = higher.

Legend:
Test in all cases: inhibition of tumour cell growth, NCI panel, 48 h
A549 = system: A549
COLO 205 = system: COLO 205
HCT-116 = system: HCT-116
HOP-62 = system: HOP-62
IGROV-1 = system: IGROV-1
NCI-H226 = system: NCI-H226
NCI-H23 = system: NCI-H23
NCI-H460 = system: NCI-H460
NCI-H522 = system: NCI-H522
OVCAR-3 = system: OVCAR-3
OVCAR-5 = system: OVCAR-5
OVCAR-8 = system: OVCAR-8
RXF 393 = system: RXF 393
SK-MEL-28 = system: SK-MEL-28
SK-MEL-5 = system: SK-MEL-5
SN12C = system: SN12C
SNB-19 = system: SNB-19
SNB-75 = system: SNB-75
UACC-257 = system: UACC-257
UACC-62 = system: UACC-62

Measured: GI50

CCCCN1CN2C(=O)C(C(=O)OCC)C(=O)c3sc4nc(SC)nc1c4c32 (stereo not given)
inactive: A549 19.9 µM | COLO 205 18.7 µM | HCT-116 15.9 µM | HOP-62 15.7 µM | IGROV-1 18.9 µM | NCI-H226 19 µM | NCI-H23 18 µM | NCI-H460 19.5 µM | NCI-H522 18.9 µM | OVCAR-3 19 µM | OVCAR-5 18.6 µM | OVCAR-8 21.6 µM | RXF 393 20.5 µM | SK-MEL-28 19.8 µM | SK-MEL-5 12.3 µM | SN12C 19.7 µM | SNB-19 19 µM | SNB-75 17.5 µM | UACC-257 19 µM | UACC-62 17.7 µM

O=NN(CCCl)C(=O)N[C@H]1CC[C@@H](O)CC1
inactive: A549 81.3 µM | COLO 205 24.4 µM | HCT-116 34 µM | HOP-62 46.3 µM | IGROV-1 68.4 µM | NCI-H226 34.2 µM | NCI-H23 39.5 µM | NCI-H460 28.3 µM | NCI-H522 20.8 µM | OVCAR-3 33.2 µM | OVCAR-5 > 100 µM | OVCAR-8 33 µM | RXF 393 23.9 µM | SK-MEL-28 25.3 µM | SK-MEL-5 52.4 µM | SN12C 36.6 µM | SNB-19 51.2 µM | SNB-75 22.6 µM | UACC-257 32.3 µM | UACC-62 13 µM

CC(C)NC(=O)OCc1c(CO)c2c(n1C)-c1ccccc1CC2
inactive: A549 40.6 µM | COLO 205 21 µM | HCT-116 17.2 µM | HOP-62 > 58.3 µM | IGROV-1 27.5 µM | NCI-H226 21.7 µM | NCI-H23 26.7 µM | NCI-H460 25.5 µM | NCI-H522 16.7 µM | OVCAR-3 22.4 µM | OVCAR-5 80.7 µM | OVCAR-8 22.5 µM | RXF 393 23.5 µM | SK-MEL-28 25.9 µM | SK-MEL-5 27.2 µM | SN12C 24.3 µM | SNB-19 42.2 µM | SNB-75 33 µM | UACC-257 31.3 µM | UACC-62 18.3 µM

CCCCS(=N)(=O)CC[C@H](N)C(=O)O (stereo not given in full) [BUTHIONINE SULFOXIME]
inactive: A549 > 5000 µM | COLO 205 > 5000 µM | HCT-116 > 5000 µM | HOP-62 > 5000 µM | IGROV-1 2110 µM | NCI-H226 > 5000 µM | NCI-H23 3420 µM | NCI-H460 4730 µM | NCI-H522 140 µM | OVCAR-3 > 4130 µM | OVCAR-5 > 5000 µM | OVCAR-8 2320 µM | RXF 393 > 5000 µM | SK-MEL-28 > 5000 µM | SK-MEL-5 > 5000 µM | SN12C > 5000 µM | SNB-19 > 5000 µM | SNB-75 2320 µM | UACC-257 > 5000 µM | UACC-62 > 5000 µM

CCCCCCCCCCCCCCCCSCC(COC)COP(=O)([O-])OCC[N+](C)(C)C (stereo not given) [ILMOFOSINE]
inactive: A549 7.21 µM | COLO 205 1.97 µM | HCT-116 6.76 µM | HOP-62 3.43 µM | IGROV-1 1.85 µM | NCI-H226 3.72 µM | NCI-H23 13.6 µM | NCI-H460 2.5 µM | NCI-H522 2.34 µM | OVCAR-3 5.38 µM | OVCAR-5 13.3 µM | OVCAR-8 9.06 µM | RXF 393 3.52 µM | SK-MEL-28 15.5 µM | SK-MEL-5 12.7 µM | SN12C 3.24 µM | SNB-19 4.3 µM | SNB-75 3.31 µM | UACC-257 14.3 µM | UACC-62 4.92 µM
